Results published in patent publication US6485970B1, “Immunointeractive antibody” (priority 1997, dated 2002).
Ends that are not written are not given here.

Columns and labels:
sensory nerves [1] = assay: Rat footpad blister model, vascular response to antidromic electrical stimulation of the sciatic nerve; type: in vivo
Experimental: (§1) A vacuum-induced blister model in the footpad of anaesthetised rats is used to induce an inflammatory response in naive skin by (a) electrical stimulation (ES) of the distal end of the cut sciatic nerve at 20 v, 5 Hz, […] for 1 min or (b) superfusion of the sensory neuropeptide; substance P (SP) over the blister base.
Male outbred Sprague-Dawley rats with an average weight of 250-300 gm were used (n=6-8 per group). Anaesthesia was induced with pentobarbitone sodium (Nembutal, 60 mg/kg, i.p.). To ensure that rats remained under a constant stage of surgical anaesthesia additional doses (15 mg/kg) were administered during the experiment. The absence of an eyelash reflex was used as an indication of the level of unconciousness. At the end of the experiment, animals were killed by barbituate overdose (100 mg/kg).
A blister was induced on the hind footpad on the anaesthetised rat by applying a vacuum pressure of −40 kPa to the glabrous skin for approximately 30 mins, using a metal suction cap heated to 40° C. by an attached heating element.
When a blister was established, the surface epithelium was removed and a perspex chamber with inlet and outlet ports was fixed over the blister base. Perfusion of the drugs over the blister was maintained at 4 ml/h by a peristaltic pump (Microperpex S, LKB, Sweden). Both perfusion and body temperature were kept at 37° C.
An initial 15 min equilibration with Ringer's solution (NaCl 9.0 g, KCl 0.42 g, CaCl2 0.48 g, NaHCO3 0.2 g in 1000 ml dH2O) was allowed before each experiment, during which time a stable baseline was established.
The right sciatic nerve in the mid-thigh region of the anaesthetised rat was dissected free and cut as proximally as possible. The distal portion of the cut nerve was placed over bipolar platinum electrodes and immersed in liquid paraffin warmed to 37° C. and contained in a bath that was formed by raising the skin flaps of the wound. The distal end of the sciatic nerve was stimulated with a Grass S48 stimulator at 20 V, 5 Hz, 0.5 ms square waves for 1 min. These parameters were previously shown to stimulate sensory nerves with subsequent release of sensory peptides.
(§2) For measurement of local blood flow, a probe attached to a laser Doppler flowmeter (Periflux, PF2B, Perimed, Sweden) was inserted vertically through a third port in the perspex chamber above the blister base. Relative blood flow was recorded over time on a chart recorder and measured as the surface area under the response curve in cm^2 using a digital planimeter.
(§3) Vasodilator responses were measured as the area under the response curve (cm^2) using a digital planimeter (Tamaya, Japan). For vascular responses to ES the area was measured for 20 min following stimulation. […] Results are expressed as mean±SEM. […]

BA-TABM = assay: Competitive inhibition ELISA, BA-TABM against plate bound BA-HSA; type: binding, human; conditions: competitor pre-incubated with BA-TABM
Experimental: FIG. 13 is a graphical representation of competitive inhibition ELISA between BA-TABM and various haptens. Purified BA-TABM was diluted and pre-mixed with various haptens. […] The amount of TABM binding as determined using the mouse monoclonal anti-human TABM antibody (MG3C9-1A12). [drawing 12]
FIG. 14 is a graphical representation showing inhibition ELISA between BA-TABM and various chemicals. Purified BA-TABM was diluted and pre-mixed with various chemicals. […] The amount of TABM binding was determined using the mouse monoclonal anti-human TABM antibody (MG3C9-1A12). [drawing 13]
The competing antigens or haptens were serially diluted (½) in the diluted serum to give a range equivalent to 5000-312.5 ng per well. […] The plate was then incubated for 60 minutes at 37° C. After washing, mouse anti-human TABM was diluted ( 1/2000), added to the plate and incubated for 90 minutes at 37° C., followed by sheep anti-mouse immunoglobulins ( 1/1000). The assay was then completed as previously described. The same ELISA conditions were used with non-bound organic molecules, except that pre-incubation of competing molecules with BA-TABM and serum was for 60 minutes.

sensory nerves [2] = assay: Rat footpad blister model, vascular response to substance P perfusion; type: in vivo; conditions: SP 1 μM alone
Experimental: as §1
Male outbred Sprague-Dawley rats with an average weight of 250-300 gm were used (n=6-8 per group). Anaesthesia was induced with pentobarbitone sodium (Nembutal, 60 mg/kg, i.p.). To ensure that rats remained under a constant stage of surgical anaesthesia additional doses (15 mg/kg) were administered during the experiment. The absence of an eyelash reflex was used as an indication of the level of unconciousness. […]
as §2, §3

[3] = human, in vivo

TGF-β
area of the vascular response to ES in presence of TGF-β (sensory nerves [1]; capsaicin-pretreated rats, TGF-β 10 pg/ml): 12.1±1.0 cm^2
effect on baseline blood flow (sensory nerves [1]; control rats, TGF-β 10 pg/ml): did not alter the baseline
area under the vascular response curve to ES, 20 min (sensory nerves [1]; control rats, TGF-β 10 pg/ml perfused 10 min prior to ES and post stimulation): 31.44±3.2 cm^2

COc1cc(CNC(=O)CCCC/C=C/C(C)C)ccc1O [capsaicin, reference compound]
area of the vascular response to ES (sensory nerves [1]; capsaicin-pretreated rats (50 mg/kg s.c., neonatal), no TGF-β): 11.7±1.1 cm^2

TMA-BSA: trimellitic acid (TMA) protein conjugate
inhibition of BA-TABM binding to plate bound BA-HSA (BA-TABM): Weaker inhibition

Substance P (RPKPQQFFGLM; ends and bridges not checked; UniProt P20366 58-68, looked up) [SP, sensory neuropeptide]
vasodilatation response to SP, area under curve 30 min (sensory nerves [2]): 44.1±3.9 cm^2

Cc1ccccc1 [toluene]
Digit Symbol, Post Challenge Mean [3]: 40.00 No. of correct items
Focal Length, Post Challenge Mean [3]: 29.53 cms
Letter Cancellation [3]: 63% correct
Letter Cancellation Time, Post Challenge Mean [3]: 4.79 min
Letter Cancellation time [3]: (5′40″)
Letter Cancellation, Post Challenge Mean [3]: 77.56 % Correct
Prose Memory (delayed), Post Challenge Mean [3]: 8.77 No. Items recalled
Prose Memory (immediate), Post Challenge Mean [3]: 7.36 No. Items recalled
Prose: Delayed Recall [3]: 6.5 items
Prose: Immediate Recall [3]: 6 items
STROOP (colour), Post Challenge Mean [3]: 74.43 No. seconds/100 words
STROOP (colour-word), Post Challenge Mean [3]: 119.73 No. seconds/100 words
STROOP (word), Post Challenge Mean [3]: 58.93 No. seconds/100 words
Stroop: Colour word [3]: 161 s
Stroop: Colours [3]: 90 s
Stroop: Words [3]: 75 s
Symbol Digit [3]: 32 items
